≈ marks a conversion by molar mass, not a printed value.
Columns and labels:
[1] = Metabolic stability in human liver microsomes assessed as hepatic clearance at 1.25 uM preincubated for 5 mins followed by NADPH addition measured upto 120 mins by LC-MS/MS analysis; format: ADME, Microsome; conditions: time < 125 min
[2] = biological target: T1, Nucleotide-binding oligomerization domain-containing protein 1 (Homo sapiens, UniProt Q9Y239); assay: Antagonist activity at human NOD1 expressed in HEK-Blue cells assessed as decrease in SEAP secretion incubated for 3 hrs followed by C12-iE-DAP stimulation for 20 hrs by spectrophotometry; format: cell-based, HEK-Blue hNOD1
T1 sequence (Q9Y239 whole entry): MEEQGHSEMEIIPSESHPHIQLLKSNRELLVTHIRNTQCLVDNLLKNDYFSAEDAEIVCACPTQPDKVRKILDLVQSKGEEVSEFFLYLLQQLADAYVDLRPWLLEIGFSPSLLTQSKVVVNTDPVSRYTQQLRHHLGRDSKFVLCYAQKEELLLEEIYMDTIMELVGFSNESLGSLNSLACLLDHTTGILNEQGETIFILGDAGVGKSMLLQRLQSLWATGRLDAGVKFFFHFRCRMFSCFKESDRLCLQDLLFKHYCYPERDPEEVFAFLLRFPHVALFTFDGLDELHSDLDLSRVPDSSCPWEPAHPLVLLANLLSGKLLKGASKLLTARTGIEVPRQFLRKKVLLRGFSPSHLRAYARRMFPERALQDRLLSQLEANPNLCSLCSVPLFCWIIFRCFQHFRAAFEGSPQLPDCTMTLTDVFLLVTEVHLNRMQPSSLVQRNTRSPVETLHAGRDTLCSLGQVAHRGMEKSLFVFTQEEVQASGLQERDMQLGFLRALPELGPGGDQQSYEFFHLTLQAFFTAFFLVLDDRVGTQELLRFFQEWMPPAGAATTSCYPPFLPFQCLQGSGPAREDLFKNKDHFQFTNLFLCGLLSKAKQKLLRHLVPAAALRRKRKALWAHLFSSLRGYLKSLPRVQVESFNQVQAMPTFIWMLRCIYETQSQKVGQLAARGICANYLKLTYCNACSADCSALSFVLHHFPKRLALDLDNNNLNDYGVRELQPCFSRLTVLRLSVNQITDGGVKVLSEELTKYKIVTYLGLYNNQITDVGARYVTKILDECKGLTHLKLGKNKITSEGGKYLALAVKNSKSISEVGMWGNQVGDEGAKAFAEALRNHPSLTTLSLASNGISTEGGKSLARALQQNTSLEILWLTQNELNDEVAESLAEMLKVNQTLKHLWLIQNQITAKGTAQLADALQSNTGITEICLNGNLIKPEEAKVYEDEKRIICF

[3] = Metabolic stability in mouse liver microsomes assessed as intrinsic clearance at 1.25 uM preincubated for 5 mins followed by NADPH addition measured upto 120 mins by LC-MS/MS analysis; format: ADME, Microsome; conditions: time < 125 min, read-out: CLH
[4] = Metabolic stability in mouse liver microsomes assessed as half life at 1.25 uM preincubated for 5 mins followed by NADPH addition measured upto 120 mins by LC-MS/MS analysis; format: ADME, Microsome; conditions: time < 125 min
[5] = Metabolic stability in human liver microsomes assessed as half life at 1.25 uM preincubated for 5 mins followed by NADPH addition measured upto 120 mins by LC-MS/MS analysis; format: ADME, Microsome; conditions: time < 125 min
[6] = Metabolic stability in human liver microsomes assessed as intrinsic clearance at 1.25 uM preincubated for 5 mins followed by NADPH addition measured upto 120 mins by LC-MS/MS analysis; format: ADME, Microsome; conditions: time < 125 min, read-out: CLH
[7] = Metabolic stability in mouse liver microsomes assessed as hepatic clearance at 1.25 uM preincubated for 5 mins followed by NADPH addition measured upto 120 mins by LC-MS/MS analysis; format: ADME, Microsome; conditions: time < 125 min
[8] = biological target: T2, Nucleotide-binding oligomerization domain-containing protein 1 (Mus musculus) (UniProt Q8BHB0); assay: Antagonist activity at mouse NOD1 expressed in HEK-Blue cells assessed as decrease in SEAP secretion at 1 uM incubated for 3 hrs followed by C12-iE-DAP stimulation for 20 hrs by spectrophotometry relative to control; format: cell-based; conditions: HEK-Blue mNOD1, filed as antagonist, time 23.0 hrs
T2 sequence (whole entry): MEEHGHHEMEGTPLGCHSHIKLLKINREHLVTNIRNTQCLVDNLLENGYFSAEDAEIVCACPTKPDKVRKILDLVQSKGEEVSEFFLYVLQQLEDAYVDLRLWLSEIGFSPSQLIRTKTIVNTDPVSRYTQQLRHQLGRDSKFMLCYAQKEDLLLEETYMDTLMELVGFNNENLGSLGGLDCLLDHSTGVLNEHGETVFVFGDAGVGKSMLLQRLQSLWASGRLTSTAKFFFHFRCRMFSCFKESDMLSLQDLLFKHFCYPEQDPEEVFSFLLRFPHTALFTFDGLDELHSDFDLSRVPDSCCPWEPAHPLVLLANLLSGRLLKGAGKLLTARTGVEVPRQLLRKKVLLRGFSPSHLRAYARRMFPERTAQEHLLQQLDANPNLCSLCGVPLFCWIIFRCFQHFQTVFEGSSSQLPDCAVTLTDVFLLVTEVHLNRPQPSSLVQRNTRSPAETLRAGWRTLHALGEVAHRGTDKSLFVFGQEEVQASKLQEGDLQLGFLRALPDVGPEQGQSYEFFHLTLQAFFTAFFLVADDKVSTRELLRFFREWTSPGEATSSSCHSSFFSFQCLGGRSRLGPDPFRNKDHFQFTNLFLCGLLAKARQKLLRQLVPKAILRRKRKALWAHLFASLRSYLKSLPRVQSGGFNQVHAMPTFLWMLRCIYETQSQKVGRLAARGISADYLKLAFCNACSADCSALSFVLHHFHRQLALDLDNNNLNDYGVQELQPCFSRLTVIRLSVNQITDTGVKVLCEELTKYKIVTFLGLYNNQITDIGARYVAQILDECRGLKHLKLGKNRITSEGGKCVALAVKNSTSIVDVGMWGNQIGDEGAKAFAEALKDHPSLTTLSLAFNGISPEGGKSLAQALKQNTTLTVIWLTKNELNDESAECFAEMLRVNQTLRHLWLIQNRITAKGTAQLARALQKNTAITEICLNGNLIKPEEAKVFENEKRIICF

[9] = biological target: T3, Nucleotide-binding oligomerization domain-containing protein 1 (Mus musculus, UniProt Q8BHB0); assay: Antagonist activity at mouse NOD1 expressed in HEK-Blue cells assessed as decrease in SEAP secretion incubated for 3 hrs followed by C12-iE-DAP stimulation for 20 hrs by spectrophotometry; format: cell-based, HEK-Blue mNOD1
T3 sequence (Q8BHB0 whole entry): T2 sequence (whole entry)

[10] = biological target: T2, Nucleotide-binding oligomerization domain-containing protein 1 (Mus musculus); assay: Antagonist activity at mouse NOD1 expressed in HEK-Blue cells assessed as decrease in SEAP secretion at 5 uM incubated for 3 hrs followed by C12-iE-DAP stimulation for 20 hrs by spectrophotometry relative to control; format: cell-based; conditions: HEK-Blue mNOD1, filed as antagonist, time 23.0 hrs
[11] = Metabolic stability in mouse hepatocytes assessed as intrinsic clearance measured per million cells at 10 uM measured after 120 mins by LC-MS analysis; format: ADME, cell-based, Hepatocyte; conditions: 2 h
[12] = Metabolic stability in mouse hepatocytes assessed as half life at 10 uM measured after 120 mins by LC-MS analysis; format: ADME, cell-based, Hepatocyte
[13] = Metabolic stability in human hepatocytes assessed as hepatic clearance at 10 uM measured after 120 mins by LC-MS analysis; format: ADME, cell-based, Hepatocyte
[14] = Metabolic stability in human hepatocytes assessed as half life at 10 uM measured after 120 mins by LC-MS analysis; format: ADME, cell-based, Hepatocyte
[15] = Metabolic stability in human hepatocytes assessed as intrinsic clearance measured per million cells at 10 uM measured after 120 mins by LC-MS analysis; format: ADME, cell-based, Hepatocyte; conditions: read-out: CLH
[16] = biological target: T4, Nucleotide-binding oligomerization domain-containing protein 2 (Homo sapiens, UniProt Q9HC29); assay: Antagonist activity at human NOD2 expressed in HEK293 cells assessed as decrease in MDP-stimulated IL-8 release incubated for 24 hrs by fluorescence based assay; format: cell-based
[17] = biological target: T4, Nucleotide-binding oligomerization domain-containing protein 2; assay: Inhibition of human NOD2 at 1 uM relative to control
[18] = biological target: Toll-like receptor 4 (Homo sapiens) (UniProt O00206); assay: Inhibition of human TLR4 at 1 uM relative to control
[19] = Solubility of compound in phosphate buffer at pH 7.2 to 7.4; format: physicochemical
[20] = biological target: T5, Nucleotide-binding oligomerization domain-containing protein 2 (Mus musculus) (UniProt Q8K3Z0); assay: Inhibition of mouse NOD2 at 1 uM relative to control
T5 sequence (whole entry): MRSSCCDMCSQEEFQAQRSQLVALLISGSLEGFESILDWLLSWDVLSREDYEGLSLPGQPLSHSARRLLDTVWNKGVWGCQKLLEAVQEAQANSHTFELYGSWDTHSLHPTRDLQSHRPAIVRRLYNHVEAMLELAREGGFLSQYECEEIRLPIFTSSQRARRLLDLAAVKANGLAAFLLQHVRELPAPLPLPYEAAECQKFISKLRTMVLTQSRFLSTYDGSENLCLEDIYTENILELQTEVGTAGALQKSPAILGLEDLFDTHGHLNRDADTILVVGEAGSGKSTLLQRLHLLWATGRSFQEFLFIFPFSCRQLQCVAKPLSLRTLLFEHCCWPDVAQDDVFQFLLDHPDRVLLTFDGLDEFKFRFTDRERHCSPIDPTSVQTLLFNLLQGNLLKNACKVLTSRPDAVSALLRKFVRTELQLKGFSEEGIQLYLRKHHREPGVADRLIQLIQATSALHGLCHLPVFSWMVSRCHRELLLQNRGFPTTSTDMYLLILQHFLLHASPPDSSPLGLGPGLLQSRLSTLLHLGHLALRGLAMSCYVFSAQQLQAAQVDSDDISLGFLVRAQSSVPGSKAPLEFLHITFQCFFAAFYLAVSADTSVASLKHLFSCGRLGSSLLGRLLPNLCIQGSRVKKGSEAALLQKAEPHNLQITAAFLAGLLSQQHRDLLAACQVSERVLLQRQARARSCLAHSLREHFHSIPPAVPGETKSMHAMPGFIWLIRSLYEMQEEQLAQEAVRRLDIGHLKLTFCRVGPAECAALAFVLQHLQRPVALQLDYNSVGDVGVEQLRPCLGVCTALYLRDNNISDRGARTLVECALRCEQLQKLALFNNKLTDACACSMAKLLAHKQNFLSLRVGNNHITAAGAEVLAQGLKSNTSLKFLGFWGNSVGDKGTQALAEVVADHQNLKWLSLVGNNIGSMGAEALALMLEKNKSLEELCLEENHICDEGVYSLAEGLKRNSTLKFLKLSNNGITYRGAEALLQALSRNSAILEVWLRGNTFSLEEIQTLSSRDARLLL

[21] = biological target: Receptor-interacting serine/threonine-protein kinase 2 (Homo sapiens) (UniProt O43353); assay: Inhibition of RIP2 (unknown origin) at 10 uM relative to control
Chain of Receptor-interacting serine/threonine-protein kinase 2 (Homo sapiens) (O43353 whole entry): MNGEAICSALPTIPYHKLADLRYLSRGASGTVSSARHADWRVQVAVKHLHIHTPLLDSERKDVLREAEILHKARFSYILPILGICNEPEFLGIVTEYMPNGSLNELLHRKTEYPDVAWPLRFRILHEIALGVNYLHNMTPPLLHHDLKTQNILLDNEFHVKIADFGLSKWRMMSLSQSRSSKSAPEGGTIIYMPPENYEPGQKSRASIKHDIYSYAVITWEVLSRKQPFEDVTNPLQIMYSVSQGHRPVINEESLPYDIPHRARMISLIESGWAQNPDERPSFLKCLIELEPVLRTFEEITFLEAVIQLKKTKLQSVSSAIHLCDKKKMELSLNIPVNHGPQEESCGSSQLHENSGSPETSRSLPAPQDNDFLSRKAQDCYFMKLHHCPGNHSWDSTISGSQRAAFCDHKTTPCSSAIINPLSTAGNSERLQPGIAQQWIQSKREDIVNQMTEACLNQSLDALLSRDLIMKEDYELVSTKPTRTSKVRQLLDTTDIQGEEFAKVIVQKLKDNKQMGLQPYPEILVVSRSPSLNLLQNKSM

T4 sequence (Q9HC29 whole entry, the tested form may be a part): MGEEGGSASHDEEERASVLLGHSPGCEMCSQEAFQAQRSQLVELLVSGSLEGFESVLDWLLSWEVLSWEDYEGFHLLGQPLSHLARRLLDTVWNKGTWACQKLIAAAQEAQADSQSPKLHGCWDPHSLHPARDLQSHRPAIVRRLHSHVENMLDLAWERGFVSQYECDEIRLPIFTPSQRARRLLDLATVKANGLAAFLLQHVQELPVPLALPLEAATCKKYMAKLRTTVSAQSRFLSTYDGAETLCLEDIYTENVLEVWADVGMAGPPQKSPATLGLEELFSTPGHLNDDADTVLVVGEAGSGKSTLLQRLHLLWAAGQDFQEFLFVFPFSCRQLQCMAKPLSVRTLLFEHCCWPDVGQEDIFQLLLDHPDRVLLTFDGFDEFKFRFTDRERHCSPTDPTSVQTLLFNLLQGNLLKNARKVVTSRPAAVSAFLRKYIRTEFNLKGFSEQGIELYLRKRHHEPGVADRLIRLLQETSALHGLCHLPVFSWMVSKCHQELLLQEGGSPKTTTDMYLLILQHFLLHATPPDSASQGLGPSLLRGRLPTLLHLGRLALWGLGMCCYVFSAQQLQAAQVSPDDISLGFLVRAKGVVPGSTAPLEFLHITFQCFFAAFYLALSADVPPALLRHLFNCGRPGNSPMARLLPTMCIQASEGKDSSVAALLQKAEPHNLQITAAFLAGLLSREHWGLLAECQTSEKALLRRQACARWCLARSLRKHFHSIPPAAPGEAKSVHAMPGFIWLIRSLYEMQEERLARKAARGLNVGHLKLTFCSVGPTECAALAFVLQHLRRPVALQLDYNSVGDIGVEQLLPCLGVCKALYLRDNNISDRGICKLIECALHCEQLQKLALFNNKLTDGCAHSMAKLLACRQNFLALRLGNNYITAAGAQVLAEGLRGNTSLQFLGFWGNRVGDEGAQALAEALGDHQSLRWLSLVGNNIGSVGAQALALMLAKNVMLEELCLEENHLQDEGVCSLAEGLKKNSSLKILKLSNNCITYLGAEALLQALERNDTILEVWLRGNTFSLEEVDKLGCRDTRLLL
Chain of Toll-like receptor 4 (Homo sapiens) (O00206 whole entry): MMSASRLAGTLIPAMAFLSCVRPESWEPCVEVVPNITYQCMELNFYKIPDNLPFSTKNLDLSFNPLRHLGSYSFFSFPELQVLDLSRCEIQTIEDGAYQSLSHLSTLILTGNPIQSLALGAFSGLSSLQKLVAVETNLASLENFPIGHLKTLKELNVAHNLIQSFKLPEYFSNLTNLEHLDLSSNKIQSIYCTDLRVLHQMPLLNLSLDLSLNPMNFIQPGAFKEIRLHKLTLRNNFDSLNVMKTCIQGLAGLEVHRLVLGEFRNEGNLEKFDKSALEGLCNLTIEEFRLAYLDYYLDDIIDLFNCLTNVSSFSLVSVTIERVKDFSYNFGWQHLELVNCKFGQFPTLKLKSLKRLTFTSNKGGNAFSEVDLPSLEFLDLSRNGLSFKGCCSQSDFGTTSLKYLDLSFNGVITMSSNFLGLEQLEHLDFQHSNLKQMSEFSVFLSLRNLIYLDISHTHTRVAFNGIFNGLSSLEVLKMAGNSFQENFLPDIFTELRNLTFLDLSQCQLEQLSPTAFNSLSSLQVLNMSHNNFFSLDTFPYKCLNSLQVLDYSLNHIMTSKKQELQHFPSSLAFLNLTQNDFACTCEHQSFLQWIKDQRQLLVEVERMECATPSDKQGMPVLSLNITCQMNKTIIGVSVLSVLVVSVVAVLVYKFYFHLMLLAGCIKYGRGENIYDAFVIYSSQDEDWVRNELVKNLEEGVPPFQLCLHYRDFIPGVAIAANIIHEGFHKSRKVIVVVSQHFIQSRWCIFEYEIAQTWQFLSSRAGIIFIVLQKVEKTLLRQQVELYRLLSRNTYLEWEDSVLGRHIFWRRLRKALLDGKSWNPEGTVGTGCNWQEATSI

Compound | CLhep predicted at 1.25 µM [1] | IC50 [2] | microsomal CLint at 1.25 µM [3] | half-life at 1.25 µM [4] | half-life at 1.25 µM [5] | microsomal CLint at 1.25 µM [6] | CLhep predicted at 1.25 µM [7] | inhibition [8] | IC50 [9] | inhibition [10] | other results
O=c1c2cc(Cl)ncc2nc(Cl)n1-c1ccc(Cl)c(NS(=O)(=O)c2ccccc2F)c1 | 8.3 mL/min/kg | 1.8 nM | 26.2 µL/min/mg | 53 min | 115 min | 12 µL/min/mg | 48 mL/min/kg | 85.6% | 118 nM | – | –
O=c1c2cc(Cl)ccc2nc(Cl)n1-c1ccc(Cl)c(NS(=O)(=O)c2ccccc2F)c1 | – | 40 nM | – | – | – | – | – | 42.7% | 2630 nM | 67.4% | –
O=c1c2nc(Cl)ccc2nc(Cl)n1-c1ccc(Cl)c(NS(=O)(=O)c2ccccc2F)c1 | 8.9 mL/min/kg | 11 nM | 35.4 µL/min/mg | 39.1 min | 104 min | 13.4 µL/min/mg | 54.7 mL/min/kg | 84.6% | 193 nM | – | –
O=c1c2ccncc2nc(Cl)n1-c1ccc(Cl)c(NS(=O)(=O)c2ccccc2F)c1 | < 6.1 mL/min/kg | 4.1 nM | < 7.4 µL/min/mg | > 186 min | > 186 min | < 7.4 µL/min/mg | < 22.1 mL/min/kg | 83.9% | 344 nM | – | CLH [11]: 307.2 µL/min; half-life at 10 µM [12]: 2.3 min; CLhep predicted at 10 µM [13]: 18.6 mL/min/kg; half-life at 10 µM [14]: 11.6 min; hepatocyte CLint at 10 µM [15]: 59.5 µL/min/1e6 cells
Cc1nc2ccc(Cl)cc2c(=O)n1-c1ccc(Cl)c(NS(=O)(=O)c2ccccc2F)c1 | – | – | – | – | – | – | – | – | 6920 nM | 49.4% | IC50 [16]: > 20000 nM; inhibition [17]: < 10%
C=CC(=O)Nc1nc2ccc(Cl)cc2c(=O)n1-c1ccc(Cl)c(NS(=O)(=O)c2ccccc2F)c1 | – | 27 nM | – | – | – | – | – | – | 7210 nM | 53.3% | –
Cc1nc2ccc(NC(=O)c3cccc(NS(=O)(=O)c4ccc(F)cc4)c3)cc2s1 | – | – | – | – | – | – | – | – | – | – | IC50 [16]: > 50000 nM
O=c1c2ccncc2nc(Cl)n1-c1ccc(Cl)c(NS(=O)(=O)c2c(F)cccc2F)c1 | – | 5.2 nM | – | – | – | – | – | 83.7% | 77 nM | – | inhibition [18]: < 10%; solubility [19]: 5.7 µg/mL (≈ 11.8 µM); inhibition [20]: < 10%; inhibition [17]: < 10%; inhibition [21]: < 10%
CS(=O)(=O)c1ccc2nc(Cl)n(-c3ccc(Cl)c(NS(=O)(=O)c4ccccc4C#N)c3)c(=O)c2c1 | – | – | – | 20.6 min | – | – | – | – | 66 nM | – | solubility [19]: 34.2 µg/mL (≈ 62.2 µM)
O=c1c2cc(Cl)cnc2nc(Cl)n1-c1ccc(Cl)c(NS(=O)(=O)c2ccccc2F)c1 | 15.2 mL/min/kg | – | 99.9 µL/min/mg | 13.9 min | 28 min | 49.4 µL/min/mg | 73.2 mL/min/kg | 84.3% | 187 nM | – | –

— ChEMBL document CHEMBL6074678, “Selectively Antagonizing the NOD1-Mediated Inflammatory Signaling Pathway Mitigates the Gastric Inflammation Induced by Helicobacter pylori Infection” (J Med Chem, 2024)
